Source: patent publication US20260234185A1, “ANTI-AGING COMPOSITION COMPRISING PEPTIDE COMPLEX AS ACTIVE INGREDIENT” (priority 2023, published 2026)
Where no end group is shown, it is not given here.

What was measured:
SIRT1 [1] = test: Western blot of SIRT1 protein expression in myocytes; type: cell-based, mouse; settings: differentiated C2C12 myocytes; 0.2, 2, 20 μg/mL; 24 hours; Western blot (FIGS. 6a, 6b)
Procedure: An experiment was performed to determine whether the peptide complex increases the phosphorylation of AMPK and the expression of SIRT1 and FGF21 proteins in myocytes.
(§1) C2C12 cells, mouse-derived myoblasts, were cultured in DMEM medium containing 1% P/S and 2% BCS. When the cell confluency reached 70-80%, the cells were seeded in a 6-well culture plate. When the cell confluency in the 6-well culture plate reached 100%, the medium was replaced with differentiation medium (1% P/S, 2% horse serum), and thereafter, the differentiation medium (1% P/S, 2% horse serum) was replaced once every two days. Five days after the first replacement, the peptide complex was treated at concentrations of 0.2 μg/mL, 2 μg/mL, and 20 μg/mL and cultured for 24 hours. The group untreated with the peptide complex was used as the control. After dissolving by adding dissolution buffer thereto, the proteins obtained were centrifuged at 4° C. and 12,000 rpm for 30 minutes, and quantified using a BCA kit. The proteins were subjected to sodium dodecyl sulfate-polyacrylamide gel electrophoresis (SDS-PAGE) and then electrotransferred onto a membrane. The membrane with the proteins attached was blocked by treating it with 5% skim milk, and then the primary antibody was reacted overnight at 4° C. […]

SIRT1 [2] = test: Western blot of SIRT1 expression in myocytes with palmitate-induced insulin metabolic disorder; type: cell-based, mouse; settings: C2C12 myocytes in insulin metabolic disorder induced by palmitate treatment; 0.2, 2, 20 μg/mL; 24 hours; Western blot (FIGS. 7a, 7b)
Procedure: An experiment was performed to determine whether the peptide complex increases AMPK phosphorylation and SIRT1 expression levels in myocytes in a state of insulin metabolic disorder induced by palmitate treatment.
as §1

SIRT1 (sirtuin1) protein = test: Western blot of SIRT1 protein expression in palmitate-treated adipocytes (insulin metabolic disorder); type: cell-based; settings: 3T3-L1 adipocytes, 25 μM palmitate 30 minutes; 0.2, 2, 20 μg/mL; 24 hours; Western blot (FIGS. 3a, 3b)
Procedure: An experiment was performed to determine whether the peptide complex prepared in Preparation Example 1 increases the phosphorylation of AMP-activated protein kinase (AMPK) and the expression level of SIRT1 (sirtuin1) protein in adipocytes in a state of insulin metabolic disorder induced by palmitate treatment.
When 3T3-L1 preadipocytes reached 80% confluence, they were seeded at 5×10^3 cells/well in a 96-well plate and used for the experiment. Two days after reaching confluence, the medium was replaced with a differentiation-inducing medium to induce the differentiation into adipocytes, and two days after the induction, the cells were cultured for 2 days in a medium containing 10% FBS and 10 μg/mL insulin, and then the medium was replaced with 10% FBS every 2 days until their differentiation into adipocytes. Once differentiation was complete, the medium was replaced with a serum-free medium and cultured for 4 hours to induce starvation. After 30 minutes of treatment with 25 μM palmitate, the peptide complexes were treated at concentrations of 0.2 μg/mL, 2 μg/mL, and 20 μg/mL and incubated for 24 hours. After dissolving by adding dissolution buffer, the proteins obtained by centrifugation at 4° C. and 12,000 rpm for 30 minutes were quantified using a BCA kit. […]

Measured: expression level of SIRT1 protein

peptide complex: prepared by mixing equal amounts of the peptide of SEQ ID NO: 1 (LKTRN) and the peptide of SEQ ID NO: 2 (KGSATGWMA) (also: mixture of two peptides)
increased: all assays above
